# From patent US7208517B1, “Endothelin antagonists” (Abbott Labortories, priority 1994, dated 2007)
# Target: T1, ETA Receptor (Rattus norvegicus, UniProt P26684)
# T1 construct: endogenous in cells; host or cells: MMQ rat pituitary cells (membranes)
# T1 sequence (P26684 21-426): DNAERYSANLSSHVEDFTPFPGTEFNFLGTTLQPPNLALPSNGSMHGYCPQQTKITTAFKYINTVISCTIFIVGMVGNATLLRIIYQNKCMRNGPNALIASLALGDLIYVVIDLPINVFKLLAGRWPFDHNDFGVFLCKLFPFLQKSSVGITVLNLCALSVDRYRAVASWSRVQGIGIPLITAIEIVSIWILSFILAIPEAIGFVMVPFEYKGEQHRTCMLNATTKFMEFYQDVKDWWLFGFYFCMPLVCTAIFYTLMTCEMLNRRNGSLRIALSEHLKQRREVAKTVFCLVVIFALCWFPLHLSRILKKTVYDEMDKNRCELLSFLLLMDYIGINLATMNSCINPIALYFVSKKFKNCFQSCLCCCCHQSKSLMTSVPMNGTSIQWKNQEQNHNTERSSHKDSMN
# Assay: [125I]ET-1 binding to membranes from MMQ cells (ETA receptor binding assay, Table 4)
# Details: test compound at 1 μM; 0.1 nM [125I]ET-1, MMQ cell membranes, 4 hours at 25° C.
row,Compound,% Inhibition of ETA at 1 μM [%]
1,"COc1ccc(C2C(C(=O)O)C(c3ccc4c(c3)OCO4)CN2CC(=O)N(CCC(C)C)CCC(C)C)cc1 (stereo not drawn) [Example 34, trans,trans-2-(4-Methoxyphenyl)-4-(1,3-benzodioxol-5-yl)-1-(N,N-diisoamylaminocarbonylmethyl)-pyrrolidine-3carboxylic acid]",95.5
2,"CCCCCS(=O)(=O)N(CCC)CCN1CC(c2ccc3c(c2)OCO3)C(C(=O)O)C1c1ccc(OC)cc1 (stereo not drawn) [Example 299, trans,trans-2-(4-Methoxyphenyl)-4-(1,3-benzodioxol-5-yl)-1-(2-(N-propyl-N-n-pentanesulfonylamino)ethyl)-pyrrolidine-3-carboxylic acid]",90.4
3,"CCCCN(CCCC)C(=O)CN1CC(c2cccnc2)C(C(=O)O)C1c1ccc(OC)cc1 (stereo not drawn) [Example 165, trans,trans-1-(N,N-Di(n-butyl)aminocarbonylmethyl)-2-(4-methoxyphenyl)-4-(3-pyridyl)pyrrolidine-3-carboxylic acid]",54.1
4,"CCCCN(CCCC)C(=O)CN1CC(c2ccc3c(c2)CCO3)C(C(=O)O)C1c1ccccc1 (stereo not drawn) [Example 153, trans,trans-1-(N,N-Di(n-butyl)aminocarbonylmethyl)-2-phenyl-4-(5-benzo-2,3-dihydrofuranyl)pyrrolidine-3-carboxylic acid]",97.1
5,"COc1ccc(C2C(C(=O)O)C(c3ccc4c(c3)OCO4)CN2CCN(C)C(=O)C(C)C)cc1 (stereo not drawn) [Example 61C, trans,trans-2-(4-Methoxyphenyl)-4-(1,3-benzodioxol-5-yl)-1-(2-(N-methyl-N-isobutyrylamino)ethyl)-pyrrolidine-3-carboxylic acid]",90.6
6,"CCCN(C)C(=O)CN1CC(c2ccc(OC)cc2OC)C(C(=O)O)C1c1ccc(OC)cc1 (stereo not drawn) [Example 147, trans,trans-1-(N-Methyl-N-propylaminocarbonylmethyl)-2-(4-methoxyphenyl)-4-(2,4-dimethoxyphenyl)pyrrolidine-3-carboxylic acid]",73.0
7,"CCCCN(CCCC)C(=O)CN1CC(c2ccc3c(c2)CCO3)C(C(=O)O)C1c1ccc(OC)cc1 (stereo not drawn) [Example 148, trans,trans-1-(N,N-Di(n-butyl)aminocarbonylmethyl)-2-(4-methoxyphenyl)-4-(5-benzo-2,3-dihydrofuranyl)pyrrolidine-3-carboxylic acid]",94.7
8,"CCCN(CCN1CC(c2ccc3c(c2)OCO3)C(C(=O)O)C1c1ccc(OC)cc1)S(=O)(=O)c1ccc(C)cc1C (stereo not drawn) [Example 123, trans,trans-1-(2-(N-Propyl-N-(2,4-dimethylbenzenesulfonyl)amino)ethyl)-2-(4-methoxyphenyl)-4-(1,3-benzodioxol-5-yl)pyrrolidine-3-carboxylic acid]",89.7
9,"CCCCN(CCCC)C(=O)CN1CC(c2cccc3occc23)C(C(=O)O)C1c1ccc(OC)cc1 (stereo not drawn) [Example 138, trans,trans-1-(N,N-Di(n-butyl)aminocarbonylmethyl)-2-(4-methoxyphenyl)-4-(4-benzofuranyl)pyrrolidine-3-carboxylic acid]",83.0
10,"C#CCN(C)C(=O)CN1CC(c2ccc3c(c2)OCO3)C(C(=O)O)C1c1ccc(OC)cc1 (stereo not drawn) [Example 41, trans,trans-2-(4-Methoxyphenyl)-4-(1,3-benzodioxol-5-yl)-1-(N-methyl-N-(2-propynyl)aminocarbonylmethyl)-pyrrolidine-3-carboxylic acid]",89.9
11,"CCCCN(CCCC)C(=O)CN1CC(c2ccc3ccoc3c2)C(C(=O)O)C1c1ccc(OC)cc1 (stereo not drawn) [Example 140, trans,trans-1-(N,N-Di(n-butyl)aminocarbonylmethyl)-2-(4-methoxyphenyl)-4-(6-benzofuranyl)pyrrolidine-3-carboxylic acid]",106.3
12,"COc1ccc(C2C(C(=O)O)C(c3ccc4c(c3)OCO4)CN2CC(=O)N(C2CCCCC2)C2CCCCC2)cc1 (stereo not drawn) [Example 311, trans—trans-2-(4-Methoxyphenyl)-4-(1,3-benzodioxol-5-yl)-1-[N,N-dicyclohexylaminocarbonylmethyl]-pyrrolidine-3-carboxylic acid]",92.3
13,"COc1ccc(C2C(C(=O)O)C(c3ccc4c(c3)OCO4)CN2CC(=O)N2CCCC(C)(C)C2)cc1 (stereo not drawn) [Example 294, trans—trans-2-(4-Methoxyphenyl)-4-(1,3-benzodioxol-5-yl)-1-[3,3-dimethylpiperidinyl-carbonylmethyl]-pyrrolidine-3-carboxylic acid]",77.7
14,"CCCN(CCN1C[C@H](c2ccc3c(c2)OCO3)[C@@H](C(=O)O)[C@@H]1c1ccc(OC)cc1)S(=O)(=O)CC(C)C (relative stereo) [Example 303, trans,trans-2-(4-Methoxyphenyl)-4-(1,3-benzodioxol-5-yl)-1-(2-(N-propyl-N-(2-methylpropanesulfonyl)amino)ethyl)-pyrrolidine-3-carboxylic acid]",87.2
15,"CCCN(C)C(=O)CN1CC(c2ccc3ccoc3c2)C(C(=O)O)C1c1ccc(OC)cc1 (stereo not drawn) [Example 136, trans,trans-1-(N-Methyl-N-propylaminocarbonylmethyl)-2-(4-methoxyphenyl)-4-(6-benzofuranyl)pyrrolidine-3-carboxylic acid]",79.4
16,"CCCN(C)C(=O)CN1CC(c2cccc3occc23)C(C(=O)O)C1c1ccc(OC)cc1 (stereo not drawn) [Example 135B, trans,trans-1-(N-Methyl-N-propylaminocarbonylmethyl)-2-(4-methoxyphenyl)-4-(4-benzofuranyl)pyrrolidine-3-carboxylic acid]",77.7
17,"CCCCCC1C(C(=O)O)C(c2ccc3c(c2)OCO3)CN1CC(=O)N(CCCC)CCCC (stereo not drawn) [Example 92C, trans,trans-2-(Pentyl)-4-(1,3-benzodioxol-5-yl)-1-(N,N-di(n-butyl)aminocarbonylmethyl)pyrrolidine-3-carboxylic acid]",107.4
18,"CC(C)OCCOc1ccc(C2C(C(=O)O)C(c3ccc4c(c3)OCO4)CN2CC(=O)NN(c2ccccc2)C(C)(C)C)cc1 (stereo not drawn) [Example 560, trans,trans-2-(4-(2-(2-Propoxy)ethoxy)phenyl)-4-(1,3-benzodioxol-5-yl)-1-N-phenyl-N-t-butylhydrazino carbonylmethyl)-pyrrolidine-3-carboxylic acid]",0
19,"CCCN(CC1CC1)C(=O)CN1CC(c2ccc3c(c2)OCO3)C(C(=O)O)C1c1ccc(OC)cc1 (stereo not drawn) [Example 38, trans,trans-2-(4-Methoxyphenyl)-4-(1,3-benzodioxol-5-yl)-1-(N-cyclopropylmethyl-N-propylaminocarbonylmethyl)-pyrrolidine-3-carboxylic acid]",100.0
20,"COCCOCCN1CC(c2ccc(OC)cc2)C(C(=O)O)C1c1ccc2c(c1)OCO2 (stereo not drawn) [Example 26, trans,trans-2-(1,3-Benzodioxol-5-yl)-4-(4-methoxyphenyl)-1-[2-(2-methoxyethoxy)ethyl)]-pyrrolidine-3-carboxylic acid]",83.0
21,"CCCCN(CCCC)C(=O)CN1CC(c2ccc3c(c2)CCO3)C(C(=O)O)C1c1ccc(C(C)(C)C)cc1 (stereo not drawn) [Example 154, trans,trans-1-(N,N-Di(n-butyl)aminocarbonylmethyl)-2-(4-t-butylphenyl)-4-(5-benzo-2,3-dihydrofuranyl)pyrrolidine-3-carboxylic acid]",80.2
